Among the test systems are SF-539; KM12; MDA-MB-435; HCT-116; RXF 393; SNB-75; SW-620; EKVX; HOP-62; NCI-H460; MDA-N; HOP-92; 786-0; NCI-H23; M14; HT-29; PC-3; MDA-MB-231; SK-MEL-2; T47D.
Holding throughout (assay): NCI tumour cell line growth inhibition, 48 h

Each structure is given as a SMILES string.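 Values below derive from 48-hour exposures of cells grown in 96-well plates, with endpoints linearly interpolated between the two concentrations bracketing the appropriate inhibition level. At the GI50, growth is halved.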 Activity calls are given as the source filed them. Cut-off read from the data, not from the text of the source: active = GI50 up to about 1.1 µM and inactive = higher.

Take `N#C/C(=C/NC(=S)Nc1ccc(S(N)(=O)=O)cc1)C(N)=O`: the GI50 in the experiment on SF-539 was > 100 µM (inactive); in the experiment with KM12 it was > 100 µM (inactive); in the experiment on MDA-MB-435, > 100 µM (inactive); in the experiment on HCT-116, > 100 µM (inactive); in the experiment with RXF 393 it was > 100 µM (inactive); in the experiment on SNB-75, 42.1 µM (inactive). In addition, the GI50 with SW-620, in the experiment with EKVX, in the experiment on HOP-62, in the experiment with NCI-H460, with MDA-N and in the experiment with HOP-92 was > 100 µM (inactive) throughout. The GI50 with 786-0, with NCI-H23, with M14, in the experiment on HT-29 and in the experiment with PC-3 was > 100 µM (inactive) each time.

On to `CCOC(=O)CCC(NC(=O)c1ccc(CNc2nc3cc(N)cc(N)c3nc2-c2ccccc2)cc1)C(=O)OCC` (stereo unspecified), for which the GI50 was > 100 µM (inactive) in the experiment with SF-539; > 85.7 µM (inactive) with KM12; 43.1 µM (inactive) in the experiment with MDA-MB-435; > 95.9 µM (inactive) in the experiment with HCT-116; > 58.9 µM (inactive) in the experiment on RXF 393; > 100 µM (inactive) in the experiment with SNB-75. In addition, the GI50 is > 100 µM (inactive) with SW-620; 22.3 µM (inactive) in the experiment on MDA-MB-231; > 100 µM (inactive) with EKVX; > 100 µM (inactive) with HOP-62; 34 µM (inactive) in the experiment with NCI-H460; 39.9 µM (inactive) in the experiment with HOP-92. Further, the GI50 with 786-0 was > 100 µM (inactive); with NCI-H23, > 67.6 µM (inactive); with M14, 28.4 µM (inactive); in the experiment on HT-29, > 100 µM (inactive); in the experiment with SK-MEL-2, 28.8 µM (inactive); in the experiment on T47D, 20.7 µM (inactive). Further, in the experiment with PC-3, the GI50 is > 100 µM (inactive).

On to `CCOC(=O)c1ccc(NC(=O)O/N=C(/Cl)CCl)cc1`, for which the GI50 with SF-539 is 69 µM (inactive); in the experiment on KM12, 15.4 µM (inactive); with HCT-116, 50.1 µM (inactive); in the experiment with SNB-75, 4.01 µM (inactive); with SW-620, 50.2 µM (inactive); with MDA-MB-231, > 100 µM (inactive). Moreover, the GI50 in the experiment on EKVX was 23.5 µM (inactive); with HOP-62 it was > 100 µM (inactive); in the experiment on NCI-H460, 47.9 µM (inactive); in the experiment on MDA-N, 37.8 µM (inactive); with 786-0, > 100 µM (inactive); in the experiment with NCI-H23 it was 78.5 µM (inactive). In addition, the GI50 in the experiment on HT-29 was 54.6 µM (inactive); in the experiment with SK-MEL-2 it was 60.5 µM (inactive); with T47D it was 34.1 µM (inactive); with PC-3, 33.6 µM (inactive).

For the molecule `Cc1nc2ccc(S(=O)(=O)Nc3ccccc3Cl)cc2c(=O)n1NC(=O)CNc1ccccc1Cl`, the GI50 in the experiment on SF-539, in the experiment with KM12, in the experiment with MDA-MB-435, with HCT-116, with SNB-75 and with SW-620 was > 100 µM (inactive) each time. Moreover, the GI50 with MDA-MB-231, with EKVX, in the experiment with HOP-62, with NCI-H460, in the experiment on MDA-N and with HOP-92 was > 100 µM (inactive) throughout. Further, the GI50 with 786-0, with NCI-H23, in the experiment with M14, in the experiment with HT-29, with SK-MEL-2 and with PC-3 was > 100 µM (inactive) throughout.

Regarding `O=C(Cn1c(-c2ccccc2)cc2ccccc21)N1CCCC1`, the GI50 in the experiment on HCT-116, in the experiment on SNB-75, in the experiment with SW-620, in the experiment with MDA-MB-231, with EKVX and in the experiment with HOP-62 was > 100 µM (inactive) each time. For the same molecule, the GI50 in the experiment on NCI-H460, in the experiment with MDA-N, with HOP-92, in the experiment with 786-0, in the experiment on M14 and with HT-29 was > 100 µM (inactive) throughout. Besides, the GI50 in the experiment on SK-MEL-2, in the experiment with T47D and in the experiment on PC-3 was > 100 µM (inactive) in each case.

Take `CC1CN=C(N(C(=O)Nc2ccccc2)c2ccccc2)S1` (stereo unspecified): the GI50 is > 10 µM (inactive) with SF-539; 32.7 µM (inactive) with KM12; 39.7 µM (inactive) in the experiment on HCT-116; 13.3 µM (inactive) with SNB-75; 41.5 µM (inactive) with SW-620; 27.4 µM (inactive) in the experiment on MDA-MB-231. Further, the GI50 in the experiment with EKVX was 29 µM (inactive); with HOP-62, 39.9 µM (inactive); in the experiment with NCI-H460, 30.1 µM (inactive); with MDA-N it was 24.1 µM (inactive); in the experiment on 786-0, 39.5 µM (inactive); in the experiment with NCI-H23, 35.4 µM (inactive). Also, the GI50 is 17.9 µM (inactive) with HT-29, 20.8 µM (inactive) in the experiment with SK-MEL-2, 24.9 µM (inactive) in the experiment on T47D and 36.6 µM (inactive) in the experiment with PC-3.

For `c1ccc(C2CC(NC3CCCCC3)=Nc3ccccc3N2)cc1` (stereo unspecified), the GI50 with KM12 is 40.8 µM (inactive); in the experiment with MDA-MB-435 it was 24.3 µM (inactive); with HCT-116 it was 73.5 µM (inactive); with RXF 393, 31.7 µM (inactive); in the experiment with SNB-75, 16.4 µM (inactive); in the experiment on SW-620, > 100 µM (inactive). In addition, the GI50 was 24.5 µM (inactive) in the experiment on MDA-MB-231; 54.8 µM (inactive) in the experiment with EKVX; > 100 µM (inactive) in the experiment on HOP-62; 46.9 µM (inactive) in the experiment with NCI-H460; 75.9 µM (inactive) with MDA-N; > 100 µM (inactive) with 786-0. The GI50 in the experiment on NCI-H23 was 54.1 µM (inactive); in the experiment with M14, 27.4 µM (inactive); in the experiment on HT-29, 24.2 µM (inactive); in the experiment on SK-MEL-2, > 100 µM (inactive); in the experiment on PC-3, 33.6 µM (inactive).

Turning to `CCOC(=O)c1nc2ccccc2nc1Nc1ccc(OC)cc1`, the GI50 in the experiment with SF-539 is 22 µM (inactive); in the experiment on KM12, > 100 µM (inactive); with MDA-MB-435 it was > 100 µM (inactive); in the experiment with HCT-116, 42.3 µM (inactive); with RXF 393, 17.5 µM (inactive); in the experiment on SNB-75, 37.9 µM (inactive). For the same molecule, the GI50 was > 100 µM (inactive) with SW-620; 20.6 µM (inactive) in the experiment with MDA-MB-231; 47.8 µM (inactive) in the experiment with EKVX; 15 µM (inactive) in the experiment with HOP-62; 40 µM (inactive) in the experiment with NCI-H460; 22.5 µM (inactive) in the experiment with HOP-92. In addition, the GI50 in the experiment on 786-0 is 27.6 µM (inactive); with NCI-H23, 54.2 µM (inactive); in the experiment with M14 it was > 100 µM (inactive); in the experiment on HT-29 it was > 100 µM (inactive); with SK-MEL-2 it was 33.7 µM (inactive); with T47D, 43.5 µM (inactive). Besides, the GI50 with PC-3 is 31.4 µM (inactive).

For `c1ccc2c(c1)CCc1c-2n(CCN2CCCCC2)c2ccccc12`, the GI50 in the experiment on SF-539 is 12.9 µM (inactive); with KM12 it was 14.9 µM (inactive); in the experiment with MDA-MB-435, 25.4 µM (inactive); in the experiment with HCT-116 it was 12.5 µM (inactive); in the experiment on SNB-75, 16.4 µM (inactive); in the experiment with SW-620, 20.8 µM (inactive). Also, the GI50 in the experiment with MDA-MB-231 is 13.2 µM (inactive); with EKVX it was 20.4 µM (inactive); in the experiment on HOP-62 it was 15.8 µM (inactive); in the experiment with NCI-H460, 15.6 µM (inactive); in the experiment with HOP-92, 16.4 µM (inactive); with 786-0 it was 16.3 µM (inactive). The GI50 in the experiment on NCI-H23 is 17.7 µM (inactive); in the experiment with M14, 13.5 µM (inactive); in the experiment on HT-29, 8.2 µM (inactive); with SK-MEL-2, 16.3 µM (inactive); in the experiment with T47D, 15.5 µM (inactive); with PC-3, 11.8 µM (inactive).

As to `[O-][Cl+3]([O-])([O-])[O-].c1ccc(-c2csc3c4ccccc4c4ccccc4[n+]23)cc1`, the GI50 in the experiment with SF-539 was 3.25 µM (inactive); in the experiment with KM12 it was 1.47 µM (inactive); in the experiment on HCT-116 it was 2.32 µM (inactive); with RXF 393, 13 µM (inactive); with SNB-75, 2.35 µM (inactive); in the experiment with SW-620, 3.5 µM (inactive). Also, the GI50 is 8.79 µM (inactive) in the experiment with EKVX; 7.1 µM (inactive) in the experiment on HOP-62; 2.51 µM (inactive) in the experiment with NCI-H460; 4.41 µM (inactive) in the experiment with HOP-92; 4.85 µM (inactive) in the experiment with 786-0; 0.553 µM (active) with NCI-H23. The GI50 with M14 was 9.48 µM (inactive); in the experiment on HT-29, 4.15 µM (inactive); in the experiment on SK-MEL-2, 2.54 µM (inactive).

In the case of `O=C1/C(=C/c2ccc(Br)s2)NC(=S)N1c1ccccc1`, the GI50 with KM12 was > 100 µM (inactive); in the experiment on MDA-MB-435 it was 86.3 µM (inactive); with HCT-116 it was 44.4 µM (inactive); in the experiment with RXF 393 it was 30.1 µM (inactive); in the experiment with SW-620 it was > 100 µM (inactive); in the experiment on MDA-MB-231 it was 34.3 µM (inactive). Also, the GI50 was > 100 µM (inactive) in the experiment with EKVX; 39.1 µM (inactive) in the experiment with HOP-62; 51.5 µM (inactive) in the experiment with NCI-H460; > 100 µM (inactive) in the experiment with MDA-N; 25.7 µM (inactive) with HOP-92; 40.8 µM (inactive) with 786-0. Besides, the GI50 with NCI-H23, in the experiment with HT-29, in the experiment with SK-MEL-2 and in the experiment with PC-3 was > 100 µM (inactive) in each case.

As to `CC(=O)NC(CCCCNC(=O)N(C)N=O)C(=O)NCc1ccccc1` (stereo unspecified), the GI50 was > 100 µM (inactive) in the experiment with SF-539; > 100 µM (inactive) with KM12; > 100 µM (inactive) in the experiment with HCT-116; > 100 µM (inactive) with RXF 393; 43.4 µM (inactive) with SNB-75; > 100 µM (inactive) in the experiment with SW-620. For the same molecule, the GI50 in the experiment on EKVX was > 100 µM (inactive); with HOP-62 it was > 100 µM (inactive); in the experiment with NCI-H460, 79.6 µM (inactive); in the experiment with HOP-92, > 100 µM (inactive); with 786-0 it was > 100 µM (inactive); in the experiment on NCI-H23 it was > 100 µM (inactive). The GI50 in the experiment on M14, with HT-29 and in the experiment with SK-MEL-2 was > 100 µM (inactive) each time.

Values taken from ChEMBL document CHEMBL1201862, “PubChem BioAssay data set” (2004).
